Test results as given in PMC6742641, “Design, synthesis and biological evaluation of a series of CNS penetrant HDAC inhibitors structurally derived from amyloid-β probes” (Scientific Reports, 2019).
Read-outs that look alike come from different tables or passages of the source. One block for each compound: values may come before it.

Experiments:
[1] = test system: SH-SY5Y cells; assay: Cell proliferation (anti-proliferation) assay, MTS; assay type: cell-based, human; conditions: for GI50 / IC50: Homo sapiens; for GI50: SH-SY5Y neuroblastoma cell line, 72 h, mean ± SD (n = 4); for IC50: read-out: anti-proliferative activity IC50 against SH-SY5Y cell line
Procedure: SH-SY5Y cells were grown in DMEM with L-glutamin supplemented with streptomycin ([…]), penicillin (100 units/mL), and 10% fetal bovine serum (FBS). Cells were grown to confluence in a humidified atmosphere (37 °C, 5% CO2).
SH-SY5Y cells (1.5 × 10^3 cells/well) were seeded in a clear 96-well plate, the medium volume was brought to 100 µL, and the cells were allowed to attach overnight. The next day, various concentrations of compounds or DMSO were added to the wells. Cells were then incubated at 37 °C for 24, 48 and 72 h. Cell viability was determined using the Promega Cell Titer 96 Aqueous One Solution cell proliferation assay. Absorbance at 490 nm was read on Tecan Infinite F200 Pro plate reader, and values were expressed as percent of absorbance from cells incubated in DMSO alone.

[2] = PAMPA-BBB assay; assay type: in vitro ADME; conditions: for Papp at 4 h, 25 μM: PAMPA, read-out: Pe
Procedure: BBB-PAMPA was conducted by manufacturer’s instruction (pION Inc, MA, USA). […] Transmembrane side to donor part was coated with BBB lipid solution and add 200 μL acceptor buffer in upper part of PAMPA sandwich plate.

[3] = test system: Ac-α-tubulin; assay: Western blot of acetylation status in SH-SY5Y cells; assay type: cell-based, human; conditions: 24 h, 1 μM
Procedure: Cells were seeded in 100 mm culture dishes (1 × 10^6 cells/dish), and allowed to attach overnight. Inhibitors were added at the concentrations as indicated and the cells were incubated for an additional 24 hours. For comparison, cells were also incubated with DMSO (0.5%) for 24 hours. Cells were harvested in ice-cold lysis buffer (23 mM Tris-HCl pH 7.6, 130 mM NaCl, 1% NP-40, 1% sodium deoxycholate, 0.1% SDS), and 30 µg of lysate per lane was separated by SDS-PAGE and followed by transferring to a PVDF membrane (Bio-Rad). The membrane was blocked with 5% skim milk in TBST, and then incubated with the corresponding antibody (Ac-α-tubulin, α-tubulin, Ac-Histone H3, Histone H3 or β-actin). After binding of an appropriate secondary antibody coupled to horseradish peroxidase, proteins were visualized by ECL chemiluminescence according to the instructions of the manufacturer (GE healthcare, USA).

[4] = In vivo brain pharmacokinetic study; conditions: ICR male mice, IV, 2 mg/kg
Procedure: The study was approved by the Institutional Animal Care and Use of Committee of Daegu-Gyeongbuk Medical Innovation Foundation (DGMIF) and performed in accordance with protocols approved by the Institutional Animal Care and Use of Committee. […] Brain and plasma samples were collected at 0.5 and 1 h time points. Brain samples were homogenized at a 1:4 ratio of sample weight (g) to PBS volume (mL). Aliquots (20 μL) of brain homogenate were mixed with 180 μL of acetonitrile, vortexed and centrifuged at 15,000 rpm for 5 minutes at 4 °C. The resulting supernatants were used for LC-MS/MS analysis. Mice plasma samples were collected at 0.5 and 1 h time points. 180 μL of acetonitrile was added to 20 μL of plasma samples, vortexed and centrifuged at 15,000 rpm for 5 minutes at 4 °C.

[5] = 25 μM, pH 7.4, 4 h, 25 °C, mean ± SD, three independent experiments

- GI50 [1]: 60 ± 1.5 µM
- IC50 ([1]; SH-SY5Y, Table 1 values IC50): 60 µM
Structure (SMILES): O=C(NO)c1ccc(-c2nc3ccccc3[nH]2)cc1 [Compound 5]

- GI50 [1]: 58.3 ± 10.8 µM
Structure (SMILES): Cn1c(-c2ccc(C(=O)NO)cc2)nc2ccccc21 [Compound 6a]

- GI50 [1]: 38.1 ± 0.2 µM
Structure (SMILES): CCn1c(-c2ccc(C(=O)NO)cc2)nc2ccccc21 [Compound 6b]

- GI50 [1]: 54.7 ± 0.95 µM
Structure (SMILES): CCCn1c(-c2ccc(C(=O)NO)cc2)nc2ccccc21 [Compound 6c]

- GI50 [1]: 26.8 ± 1.35 µM
- IC50 ([1]; SH-SY5Y, Table 1 values IC50): 26.8 µM
Structure (SMILES): CCCCn1c(-c2ccc(C(=O)NO)cc2)nc2ccccc21 [Compound 6d]
- fold increase in potency from non-substituted analogue 5 ([1]; SH-SY5Y): ~2 fold

- GI50 [1]: 25.7 ± 0.05 µM
- IC50 ([1]; SH-SY5Y, Table 1 values IC50): 25.7 µM
Structure (SMILES): O=C(NO)c1ccc(-c2nc3ccccc3o2)cc1 [Compound 9a]
- fold less potent anti-proliferative activity than compound 9b ([1]; SH-SY5Y): 12 fold

- GI50 [1]: > 100 µM
Structure (SMILES): O=C(NO)c1cccc(-c2nc3ccccc3[nH]2)c1 [Compound 13]

- GI50 [1]: > 100 µM
Structure (SMILES): Cn1c(-c2cccc(C(=O)NO)c2)nc2ccccc21 [Compound 14a]

- GI50 [1]: 28.2 ± 0.75 µM
Structure (SMILES): CCn1c(-c2cccc(C(=O)NO)c2)nc2ccccc21 [Compound 14b]

- GI50 [1]: 34.6 ± 0.6 µM
Structure (SMILES): CCCn1c(-c2cccc(C(=O)NO)c2)nc2ccccc21 [Compound 14c]

- GI50 [1]: 20.7 ± 1 µM
Structure (SMILES): CCCCn1c(-c2cccc(C(=O)NO)c2)nc2ccccc21 [Compound 14d]

- GI50 [1]: 17.5 ± 0.35 µM
Structure (SMILES): O=C(NO)c1cccc(-c2nc3ccccc3o2)c1 [Compound 17a]

- GI50 [1]: 21.4 ± 1.65 µM
Structure (SMILES): O=C(NO)c1cccc(-c2nc3ccccc3s2)c1 [Compound 17b]

- CNS +/− classification ([2]; PAMPA-BBB): CNS + (CNS + indicates (Pe > 10))
- Papp at 4 h, 25 μM [2, 5]: 35.52 ± 0.33 ×10⁻⁶ cm/s
Structure (SMILES): CC(=O)[C@H]1CC[C@H]2[C@@H]3CCC4=CC(=O)CC[C@]4(C)[C@H]3CC[C@]12C [Progesterone]

- Pe (10^−6 cm/s) [2, 5]: 2.77 10^−6 cm/s
- Papp at 4 h, 25 μM [2, 5]: 2.77 ± 0.05 ×10⁻⁶ cm/s
- Brain concentration (ng/mL) 0.5 h ([4]; 0.5 h, n = 4): 14.5 ± 2.8 ng/mL
- Brain concentration (ng/mL) 1 h ([4]; 1 h, n = 4): BQL
- Kp at 0.5 h ([4]; mouse, brain/plasma, 0.5 h, read-out: Brain/plasma ratio 0.5 h): 0.4
- concentration at 0.5 h ([4]; mouse, brain, 0.5 h, n = 4, read-out: Brain concentration (ng/mL) 0.5 h): 14.5 ng/mL
- concentration at 0.5 h ([4]; mouse, plasma, 0.5 h, n = 4, read-out: Plasma concentration (ng/mL) 0.5 h): 39.2 ± 11.5 ng/mL
- concentration at 1 h ([4]; mouse, plasma, 1 h, n = 4, read-out: Plasma concentration (ng/mL) 1 h): 4.5 ± 2.7 ng/mL
- IC50 ([1]; SH-SY5Y): 2.9 µM
- GI50 [1]: 2.9 ± 0.28 µM
Structure (SMILES): O=C(CCCCCCC(=O)Nc1ccccc1)NO [SAHA, suberoylanilide hydroxamic acid, reference compound]
- acetylation of α-tubulin at 1 μM, SAHA versus 9b [3]: induced more acetylation of α-tubulin than compound 9b
